One block for each molecule: values may come before it.
Assays:
CYP116B305 [1] = test: Substrate binding by UV-visible difference spectroscopy (KD, heme spin-state shift); parameters: species or system Geminicoccaceae; settings: for Kd: difference spectroscopy, CYP116B305 2–4 µM, substrate 0–100 µM; for Spin-state shift (%): low-spin to high-spin heme shift on substrate binding
CYP116B305 [2] = test: NAD(P)H consumption assay (cofactor preference, oxidation rates); assay type: biochemical, Geminicoccaceae; settings: for Km: cofactor oxidation in the presence of 2-HPA, read-out: KM of nicotinamide cofactor; for NADH consumption rates / NADPH consumption rates: 33% FMN inclusion, min^−1; for NADH consumption rates (100% FMN rates) / NADPH consumption rates (100% FMN rates): corresponding to full FMN incorporation, approximate maximum
Description: The consumption rates were calculated using nonlinear regression (GraphPad Prism), fitting to either the Michaelis–Menten or a quadratic velocity equation to determine the apparent KM and kcat values.

CYP116B305 [3] = test: Cytochrome c reduction assay with NADPH as electron donor; assay type: biochemical, Geminicoccaceae; settings: cytochrome c as artificial electron acceptor
Description: Similarly, a cytochrome c reduction assay was also performed to derive the kinetic parameters, following established protocols (Guengerich et al. [2009]; Tavanti et al. [2018b]). Reactions contained cytochrome c (equine heart, Sigma-Aldrich, 50 µM), CYP116B305 (200 nM), catalase (1 µM), and varying concentrations of NADPH (0.5–200 µM). Cytochrome c reduction was monitored as described above, and nonlinear regression analysis (GraphPad Prism) was utilised to determine the KM and kcat values.

CYP116B305 [4] = test: In vitro catalytic turnovers and coupling efficiency (GC-MS); assay type: biochemical, Geminicoccaceae; settings: for Coupling (NADPH): product formed to NADPH consumed
Description: The reaction mixtures contained CYP116B305 (1 µM) in KPi buffer (50 mM, pH 7.4), catalase (1 µM), substrate (600 µM), and NAD(P)H (1.2 mM). Reactions were conducted at both room temperature (25 °C) and elevated temperature (45 °C) under constant stirring for 1 h. A control reaction, omitting the P450 enzyme, was also performed. Post-incubation, reaction mixtures were acidified to pH 0–2 with HCl (except for 4-methoxyacetophenone assays), followed by extraction with ethyl acetate (3 × 1 mL). The combined organic phases were dried over magnesium sulphate and concentrated to 100 µL under a stream of nitrogen gas. Concentrated samples were derivatised with N,O-bis(trimethylsilyl)trifluoroacetamide (BSTFA-TMS) before being analysed by gas chromatography–mass spectrometry (GC–MS; Zebron ZB-5MS column 30 m × 0.25 mm × 0.25 µm). The method was 50 °C for 5 min followed by increments of 16 °C min^−1 until 250 °C was reached, then held for 5 min.
For coupling efficiency analysis, the NAD(P)H concentration was reduced to 200 µM, and an internal standard (100 µM) was added to the reactions prior to acidification and extraction. […] In the case of 4-methoxyacetophenone, the reactions were stirred for 2 h, and product formation (4-hydroxyacetophenone) was then quantified using a standard curve generated from 4-hydroxyacetophenone (0.05–1 mM) and an internal standard (fluorene; 100 µM).

[5] = in the presence of 2-HPA, 25 °C

Structure (SMILES): NC(=O)C1=CN([C@@H]2O[C@H](COP(=O)(O)OP(=O)(O)OC[C@H]3O[C@@H](n4cnc5c(N)ncnc54)[C@H](O)[C@@H]3O)[C@@H](O)[C@H]2O)C=CC1 [NADH, reference compound]
Km (CYP116B305 [2]; 25 °C): 60 ± 15 µM
kcat of nicotinamide cofactor oxidation (CYP116B305 [2]; [5]): 0.65 ± 0.067 s⁻¹

Structure (SMILES): NC(=O)C1=CN([C@@H]2O[C@H](COP(=O)(O)OP(=O)(O)OC[C@H]3O[C@@H](n4cnc5c(N)ncnc54)[C@H](OP(=O)(O)O)[C@@H]3O)[C@@H](O)[C@H]2O)C=CC1 [NADPH, reference compound]
Km (CYP116B305 [3]): 1.2 ± 0.1 µM
kcat for NADPH (CYP116B305 [3]): 0.0683 ± 0.0017 s⁻¹
Km (CYP116B305 [2]; 25 °C): 4.1 ± 0.3 µM
fold lower KM compared to NADH (CYP116B305 [2]; [5]): 15 fold
kcat of nicotinamide cofactor oxidation (CYP116B305 [2]; [5]): 0.217 ± 0.017 s⁻¹

Structure (SMILES): COc1ccc(C(C)=O)cc1 [4-Methoxyacetophenone]
product formation with NADH as electron donor (CYP116B305 [4]; 4-hydroxyacetophenone product, NADH): no product was observed
Coupling (NADPH) (CYP116B305 [4]; 25 °C): n.q
Coupling (NADPH) (CYP116B305 [4]; 45 °C, listed as 4-Methoxy acetophenone): 24 ± 5%
Coupling (NADPH) (CYP116B305 [4]; 45 °C, listed as 4-methoxyacetophenone): 24 ± 5%
NADH consumption rates (CYP116B305 [2]; 25 °C): 2 ± 1 µM (µM^−1 P450) min^−1
NADH consumption rates (100% FMN rates) (CYP116B305 [2]; 25 °C): ~6 µM (µM^−1 P450) min^−1
NADH consumption rates (CYP116B305 [2]; 45 °C): 3 ± 1 µM (µM^−1 P450) min^−1
NADPH consumption rates (CYP116B305 [2]; 45 °C): 1 ± 1 µM (µM^−1 P450) min^−1
NADH consumption rates (100% FMN rates) (CYP116B305 [2]; 45 °C): ~9 µM (µM^−1 P450) min^−1
NADPH consumption rates (100% FMN rates) (CYP116B305 [2]; 45 °C): ~3 µM (µM^−1 P450) min^−1
Kd (CYP116B305 [1]): 73 ± 6 µM
Spin-state shift (%) (CYP116B305 [1]): 26 ± 3%
Spin-state shift (%) (CYP116B305 [1]; listed as 4-methoxyacetophenone): 26 ± 3%

Structure (SMILES): O=C(O)Cc1ccccc1 [Phenylacetic acid]
Kd (CYP116B305 [1]): 39 ± 11 µM
Spin-state shift (%) (CYP116B305 [1]): 34 ± 6%
Spin-state shift (%) (CYP116B305 [1]; listed as phenylacetic acid): 34 ± 6%

More lines, main results first:

Kd (CYP116B305 [1]): 43 ± 6 µM
Spin-state shift (%) (CYP116B305 [1]): 25 ± 2%
Spin-state shift (%) (CYP116B305 [1]; listed as salicylic acid): 25 ± 2%
Structure (SMILES): O=C(O)c1ccccc1O [Salicylic acid]

Kd (CYP116B305 [1]): 61 ± 19 µM
Spin-state shift (%) (CYP116B305 [1]): 13 ± 4%
Spin-state shift (%) (CYP116B305 [1]; listed as trans-cinnamic acid): 13 ± 4%
Structure (SMILES): O=C(O)/C=C/c1ccccc1 [trans-Cinnamic acid]

Kd (CYP116B305 [1]): 65 ± 13 µM
Spin-state shift (%) (CYP116B305 [1]): 17 ± 1%
Spin-state shift (%) (CYP116B305 [1]; listed as 4-hydroxyphenylacetic acid): 17 ± 1%
Structure (SMILES): O=C(O)Cc1ccc(O)cc1 [4-Hydroxyphenylacetic acid]

Kd (CYP116B305 [1]): 0.4 ± 0.2 µM
Spin-state shift (%) (CYP116B305 [1]): 90 ± 5%
Spin-state shift (%) (CYP116B305 [1]; listed as 3-(2-Hydroxyphenyl)propionic acid (HPPA)): 90 ± 5%
Structure (SMILES): O=C(O)CCc1ccccc1O [HPPA, 3-(2-hydroxyphenyl)propionic acid]
Coupling (NADPH) (CYP116B305 [4]; 25 °C): 15 ± 2%
Coupling (NADH) (CYP116B305 [4]; 45 °C, product formed to NADH consumed): 15 ± 9%
Coupling (NADPH) (CYP116B305 [4]; 45 °C): 26 ± 1%
NADH consumption rates (CYP116B305 [2]; 25 °C): 31 ± 3 µM (µM^−1 P450) min^−1
NADPH consumption rates (CYP116B305 [2]; 25 °C): 11 ± 1 µM (µM^−1 P450) min^−1
NADPH consumption rates (100% FMN rates) (CYP116B305 [2]; 25 °C): ~33 µM (µM^−1 P450) min^−1
fold increase of NADH oxidation rate (CYP116B305 [2]; 45 °C compared to 25 °C): 2.4 fold
fold increase of NADPH oxidation rate (CYP116B305 [2]; 45 °C compared to 25 °C): sixfold
NADH consumption rates (CYP116B305 [2]; 45 °C): 73 ± 2 µM (µM^−1 P450) min^−1
NADPH consumption rates (CYP116B305 [2]; 45 °C): 65 ± 3 µM (µM^−1 P450) min^−1
NADH consumption rates (100% FMN rates) (CYP116B305 [2]; 45 °C): ~221 µM (µM^−1 P450) min^−1
NADPH consumption rates (100% FMN rates) (CYP116B305 [2]; 45 °C): ~196 µM (µM^−1 P450) min^−1
